Assay results taken from patent US8367710B2, “Bicyclo-substituted pyrazolon azo derivatives, preparation process and pharmaceutical use thereof” (Jiangsu Hengrui Medicine Co. Ltd., priority 2008, dated 2013).

Tests used:
[1] = target: T1, human TPO receptor (Homo sapiens, UniProt P40238); test: pro-proliferation effect on BAF3-TPOR cell (CCK-8); type: cell-based, mouse; details: BAF3-TPOR cells, proliferation relative to rhTPO positive control
T1 sequence (P40238 26-635): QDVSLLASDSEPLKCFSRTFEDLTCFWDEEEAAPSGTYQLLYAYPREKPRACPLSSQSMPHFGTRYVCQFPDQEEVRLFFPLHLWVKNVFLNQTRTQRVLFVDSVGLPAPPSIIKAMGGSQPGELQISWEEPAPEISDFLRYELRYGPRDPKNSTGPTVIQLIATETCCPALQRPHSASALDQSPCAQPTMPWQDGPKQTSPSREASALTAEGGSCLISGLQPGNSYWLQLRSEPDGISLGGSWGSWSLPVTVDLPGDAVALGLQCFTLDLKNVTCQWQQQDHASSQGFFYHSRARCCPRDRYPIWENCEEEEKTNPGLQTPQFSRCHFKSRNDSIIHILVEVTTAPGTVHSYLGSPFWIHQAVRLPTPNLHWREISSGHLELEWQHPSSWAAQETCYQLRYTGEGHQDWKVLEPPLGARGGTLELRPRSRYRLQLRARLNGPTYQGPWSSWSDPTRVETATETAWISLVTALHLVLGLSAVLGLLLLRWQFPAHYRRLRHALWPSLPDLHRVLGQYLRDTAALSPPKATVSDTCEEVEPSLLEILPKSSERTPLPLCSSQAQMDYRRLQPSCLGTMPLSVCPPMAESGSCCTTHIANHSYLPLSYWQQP
Description: The sequence of primers which contains multi-sites mutation was designed as follows: […]
The E. coli DH5α competent cell was transformed with mutated plasmid, and positive colonies were picked up through ampicillin selection.
(2) BAF3-TPOR stable transfected cell line: the following method was used to construct the BaF3 cell which stably over-expressed functional human TPO receptor. […] The stable transfected cells BAF3-TPOR were selected with G418 (Gibco, US), then incubated with RPMI1640 medium plus 10% FBS (Gibco, US), […] G418, 5 ng/mL, rmIL-3 (Chemicon, US).
(1) Washing cells by centrifugation: a suitable amount of cell suspension was centrifuged at 1000 rpm for 5 minutes, and the supernatant was discarded. 10 mL of cell culture media without containing IL-3 was added. Then the resulting cell suspension was centrifuged at 1000 rpm for 5 minutes, and the supernatant was discarded.
(2) 1 mL of cell culture media without containing IL-3 was added to beat upon them to equality, and the number of a suitable amount of cell suspension was counted after dilution.
(3) According to the result of the cell counting, a cell suspension in a concentration of 100,000 cell/mL was prepared.
(4) 100 μL of cell suspension was transferred to each well of 96-well culture plate, and there were 3 parallel wells, that is, there were a blank control group (B), a negative control group (N), a positive control group of TPO (P) and a test compound group (S).
(5) The test compound was dissolved in DMSO to prepare a 10 mM stock solution, and then the solution was diluted with RPMI 1640 medium into a series of test samples at different concentration: 30 μM, 10 μM, 3 μM, 1 μM, 0.3 μM, 0.1 μM, 0.03 μM, 0.01 μM, 0.003 μM, 0.001 μM.
(6) 10 μL of test compound solution was transferred to each well respectively; 1 μL of rhTPO (10 μg/mL) was added to positive control well.
(7) The plates were incubated in an incubator at 5% CO2 and 37° C. for 24 hours.
(9) OD value was detected at 450 nm by VICTOR3 (Perkin Elmer 1420-120) plate reader.
(1) The proliferation rate was calculated as follows: Rate=[(S−B)/(P−B)]*100%
S: OD value of wells which contains test compound.
B: OD value of blank control wells
P: OD value of positive control wells
(2) The EC50 value was calculated by Origin 7.0 software.

[2] = Pharmacokinetics assay in rats after intragastric administration; type: in vivo; details: both sexes, Sprague-Dawley, rat, plasma, po, SD rats, 5 mg/Kg; for Vd/F: read-out: Apparent Distribution Volume Vz/F; for CL/F: read-out: Clearance CL/F (converted); for AUC: read-out: Curve Area AUC; for half-life: read-out: Half-Life t½ (converted); for MRT: read-out: Mean Residence Time MRT; for Cmax: read-out: Plasma Conc. Cmax
Description: Test Example 1: Pharmacokinetics assay of the compounds of the present disclosure
The pharmacokinetics of the compounds of the present disclosure was studied and evaluated in rats.
The test compound was diluted with 1% sodium carboxymethyl cellulose to 0.5 mg/mL (calculated as the free acid form) of suspension before use.
24 healthy adult SD rats, male and female in half, were divided into […]. After an overnight fast, the rats were administered intragastrically at a dose of 5.0 mg/kg (calculated as the free acid form), at a volume of 10 mL/kg.
24 healthy adult SD rats, male and female in half, were administered intragastrically at a dose of 5.0 mg/kg after an overnight fast. Blood samples (0.2 mL) were taken from eye socket at pre administration and at 0.5, 1.0, 2.0, 3.0, 4.0, 5.0, 6.0, 8.0, 11.0, 14.0, 24.0, 36.0 and 48.0 hours post administration, which were stored in heparinized tubes and centrifuged for 10 minutes at 3,500 rpm. The plasma samples were stored at −20° C. until analysis.
50 μL of rat plasma, obtained at various time points after administration, 20 μL of internal standard solution and 20 μL of a solvent mixture of methanol and water (80:20, v/v) were mixed well, and then 150 μL of methanol was added to result in protein precipitation. Then the mixture was mixed for 1 minute using a vortexer and centrifuged for 10 minutes at 13,000 rpm. 20 μL of the supernatant was analyzed by LC/MS/MS.
50 μL of blank plasma was spiked with a series of standard solutions to produce final concentrations of 1.0, 5.0, 25.0, 50.0, 100.0, 250.0, 500.0 ng/mL, followed by addition of 20 μL of internal standard solution, which was treated according to plasma sample pretreatment protocol. A typical calibration curve equation was obtained with plasma concentration as the abscissa and the chromatographic peak area ratio of sample to internal standard as the ordinate, using weighted least squares method (w=1/x^2) for linear regression.
The compartmental model of pharmacokinetics was fitted for the test compounds and the major pharmacokinetic parameters were calculated in which Cmax and tmax were the actually measured values.

| Compound | EC50 [1] [nM] | further results |
| --- | --- | --- |
| CC1=NN(c2ccc3c(c2)CCO3)C(=O)/C1=N\Nc1cccc(-c2cccc(C(=O)O)c2)c1O [Example 7, 3′-{N′-[1-(2,3-dihydro-benzofuran-5-yl)-3-methyl-5-oxo-1,5-dihydro-pyrazol-4-ylidene]-hydrazino}-2′-hydroxy-biphenyl-3-carboxylic acid] | 265 | – |
| CC1=NN(c2ccc3c(c2)CCCC3)C(=O)/C1=N\Nc1cc(F)cc(-c2cccc(C(=O)O)c2)c1O [Example 4, 5′-Fluoro-2′-hydroxy-3′-{N′-[3-methyl-5-oxo-1-(5,6,7,8-tetrahydro-naphthalen-2-yl)-1,5-dihydro-pyrazol-4-ylidene]-hydrazino}-biphenyl-3-carboxylic acid] | 283 | – |
| CC1=NN(c2ccc3c(c2)C(C)(C)CC3(C)C)C(=O)/C1=N\Nc1cc(C)cc(-c2cccc(C(=O)O)c2)c1O [Example 20, 2′-Hydroxy-5′-methyl-3′-{N′-[3-methyl-5-oxo-1-(1,1,3,3-tetramethyl-indan-5-yl)-1,5-dihydro-pyrazol-4-ylidene]-hydrazino}-biphenyl-3-carboxylic acid] | 89 | – |
| CC1=NN(c2ccc3c(c2)CC(C)(C)C3)C(=O)/C1=N\Nc1cccc(-c2cccc(C(=O)O)c2)c1O [Example 56, 3′-{N′-[1-(2,2-Dimethyl-indan-5-yl)-3-methyl-5-oxo-1,5-dihydro-pyrazol-4-ylidene]-hydrazino}-2′-hydroxy-biphenyl-3-carboxylic acid] | 60 | – |
| CC1=NN(c2ccc3c(c2)CCO3)C(=O)/C1=N\Nc1cc(C)cc(-c2cccc(C(=O)O)c2)c1O [Example 13, 3′-{N′-[1-(2,3-Dihydro-benzofuran-5-yl)-3-methyl-5-oxo-1,5-dihydro-pyrazol-4-ylidene]-hydrazino}-2′-hydroxy-5′-methyl-biphenyl-3-carboxylic acid] | 141 | – |
| CC1=NN(c2ccc3c(c2)CCCC3)C(=O)/C1=N\Nc1cccc(-c2csc(C(=O)O)c2)c1O [Example 51, 4-(2-Hydroxy-3-{N′-[3-methyl-5-oxo-1-(5,6,7,8-tetrahydro-naphthalen-2-yl)-1,5-dihydro-pyrazol-4-ylidene]-hydrazino}-phenyl)-thiophene-2-carboxylic acid] | 55 | – |
| CC1=NN(c2ccc3c(c2)CCC3)C(=O)/C1=N\Nc1cccc(-c2cccc(C(=O)O)c2)c1O [Example 1, 2′-Hydroxy-3′-[N′-(1-indan-5-yl-3-methyl-5-oxo-1,5-dihydro-pyrazol-4-ylidene)-hydrazino]-biphenyl-3-carboxylic acid] | – | Vd/F [2]: 0.35 ± 0.18 L/kg; CL/F [2]: 0.817 mL/min/kg; AUC [2]: 132000 ± 47000 ng·h/mL; half-life [2]: 5.39 ± 0.94 h; MRT [2]: 4.96 ± 1.16 h; Cmax [2]: 29000 ± 11400 ng/mL |
| CC1=NN(c2ccc3c(c2)CCCC3)C(=O)/C1=N\Nc1cc(C)cc(-c2cccc(C(=O)O)c2)c1O [Example 11, 2′-Hydroxy-5′-methyl-3′-{N′-[3-methyl-5-oxo-1-(5,6,7,8-tetrahydro-naphthalen-2-yl)-1,5-dihydro-pyrazol-4-ylidene]-hydrazino}-biphenyl-3-carboxylic acid] | 257 | – |
| CC1=NN(c2ccc3c(c2)C(C)CC3)C(=O)/C1=N\Nc1cccc(-c2ccc(C(=O)O)o2)c1O (stereo not shown) [Example 44, 5-(2-Hydroxy-3-{N′-[3-methyl-1-(3-methyl-indan-5-yl)-5-oxo-1,5-dihydro-pyrazol-4-ylidene]-hydrazino}-phenyl)-furan-2-carboxylic acid] | 50 | – |
| CC1=NN(c2ccc3c(c2)CCCC3)C(=O)/C1=N\Nc1cccc(-c2ccc(C(=O)O)o2)c1O [Example 15, 5-(2-Hydroxy-3-{N′-[3-methyl-5-oxo-1-(5,6,7,8-tetrahydro-naphthalen-2-yl)-1,5-dihydro-pyrazol-4-ylidene]-hydrazino}-phenyl)-furan-2-carboxylic acid] | – | Vd/F [2]: 1.36 ± 0.7 L/kg; CL/F [2]: 4.67 mL/min/kg; AUC [2]: 23800 ± 17300 ng·h/mL; half-life [2]: 3.47 ± 0.79 h; MRT [2]: 4.09 ± 0.99 h; Cmax [2]: 6630 ± 3780 ng/mL |

Second part, led by results:

| EC50 [1] [nM] | Compound | further results |
| --- | --- | --- |
| 130 | CC1=NN(c2ccc3c(c2)CC(C)(C)C3)C(=O)/C1=N\Nc1cccc(-c2ccc(C(=O)O)o2)c1O [Example 45, 5-(3-{N′-[1-(2,2-Dimethyl-indan-5-yl)-3-methyl-5-oxo-1,5-dihydro-pyrazol-4-ylidene]-hydrazino}-2-hydroxy-phenyl)-furan-2-carboxylic acid] | – |
| 15 | CC1=NN(c2ccc3c(c2)CC3)C(=O)/C1=N\Nc1cccc(-c2ccc(C(=O)O)o2)c1O [Example 22, 5-{3-[N′-(1-Bicyclo[4.2.0]octa-1(6),2,4-trien-3-yl-3-methyl-5-oxo-1,5-dihydro-pyrazol-4-ylidene)-hydrazino]-2-hydroxy-phenyl}-furan-2-carboxylic acid] | – |
| 133 | COC(=O)c1ccc(-c2cccc(N/N=C3\C(=O)N(c4ccc5c(c4)CCCC5)N=C3C)c2O)o1 [Example 54, 5-(2-Hydroxy-3-{N′-[3-methyl-5-oxo-1-(5,6,7,8-tetrahydro-naphthalen-2-yl)-1,5-dihydro-pyrazol-4-ylidene]-hydrazino}-phenyl)-furan-2-carboxylic acid methyl ester] | – |
| 71 | COC(=O)c1ccc(-c2cccc(N/N=C3\C(=O)N(c4ccc5c(c4)CCC5)N=C3C)c2O)o1 [Example 55, 5-{2-hydroxy-3-[N′-(1-indan-5-yl-3-methyl-5-oxo-1,5-dihydro-pyrazol-4-ylidene)-hydrazino]-phenyl}-furan-2-carboxylic acid methyl ester] | – |
| 27 | CC1=NN(c2ccc3c(c2)CCC3)C(=O)/C1=N\Nc1cccc(-c2coc(C(=O)O)c2)c1O [Example 31, 4-{2-Hydroxy-3-[N′-(1-indan-5-yl-3-methyl-5-oxo-1,5-dihydro-pyrazol-4-ylidene)-hydrazino]-phenyl}-furan-2-carboxylic acid] | – |
